Measurements: patent US11147765B1, “Instantly dissolving buccal films” (King Abdulaziz University, priority 2020, dated 2021)
Structures can show the parent of a compound that is named as a salt.

Key:
[1] = Dissolution screening of DPX and its physical mixtures with organic acids and cyclodextrins; assay type: physicochemical; details: phosphate buffer pH 6.8, 37±0.5° C., in absence of excipients
Description: Various organic acids (CA, MA, and TA) and cyclodextrins β3-CD and HP-β-CD) were assessed as acidifiers and hydrophilic solubilizers to enhance the dissolution of DPX. Equivalent amounts of DPX and each of the studied excipients were thoroughly mixed for 5 min. The dissolution behavior of specified quantity of each mixture equivalent to 30 mg DPX was done in 900 mL phosphate buffer (pH 6.8) using USP Dissolution Tester, apparatus II (DT 720, Erweka, Germany) operating at 50 rpm at 37±0.5° C.. Aliquot samples were withdrawn after 2 and 15 minutes and replaced with equal volume of fresh buffer. Samples were filtered through a 0.22 μm Millipore filter, and the concentration of DPX was quantified spectrophotometrically at 292 nm (UV-2600 PC; Shimadzu, Kyoto, Japan). The dissolution study was done in triplicate.

[2] = reported [26]; cited from earlier work

percent dissolved after 2 minutes [1]: 2.13±0.09% | percent dissolved after 15 minutes [1]: 2.89±0.06%
Compound: CN(C)[C@@H](CCOc1cccc2ccccc12)c1ccccc1 [DPX, Dapoxetine hydrochloride]
solubility in phosphate buffer pH 6.8 [2]: 0.26 μg·mL^−1
